Reference: US8404858B2, “Agent for regeneration and/or protection of nerves” (Ono Pharmaceutical Co., Ltd., priority 2005, dated 2013)

Legend:
rat = assay: Measurement of the cauda equina blood flow and the blood pressure; format: in vivo; conditions: urethane-anesthetized rat, continuous infusion through caudal vein for 30 minutes
Procedure: (3) The Measurement of the Cauda Equina Blood Flow and the Blood Pressure
1.5 g/kg of urethane was administered intraperitoneally to the rat to be anesthetized, and the catheter (for measurement of blood pressure and ventricular rate) was placed in left carotid artery in supine position. The rat was reversed to prone position and the lumbar part was incised in the median line. The laminectomy was given to the fifth lumbar vertebra and the spinal cord (cauda equina) was exposed. The cauda equina blood flow was measured by the laser-Doppler flowmetry (OMEGAFLD FLO-NI and ADVANCE LASER FLOWMETER ALF21N, OMEGA WAVE Inc.) through a noncontact probe (ST-N type, OMEGA WAVE Inc.) and recorded with LINEARCORDER (Graphtech). The systemic blood pressure and the ventricular rate were measured from a left carotid artery with amplifier for the pressure measurement (GOULD) through a pressure transducer and recorded with LINEARCORDER (Graphtech). After confirming each parameter of blood pressure, ventricular rate and blood flow was stabilized, the test compound was administrated by continuous infusion through the winged needle placed in caudal vein for 30 minutes. It observed until 30 minutes after the administration and the increase rate of the cauda equina blood flow was calculated.
The increase rate of the cauda equina blood flow (%)=(B−A)/A×100 […]

rat EP3 receptor = target: T1, rat EP3 receptor (Rattus norvegicus, UniProt P34980); assay: Measurement of EP3 agonist activity (intracellular calcium concentration real time imaging, Ca2+ assay); format: cell-based; conditions: rEP3-CHO cell, maximum = PGE2 (100 nmol/L)
T1 construct: expressed in transfected cells; host or cells: CHO cells (rEP3-CHO)
T1 sequence (P34980 1-365): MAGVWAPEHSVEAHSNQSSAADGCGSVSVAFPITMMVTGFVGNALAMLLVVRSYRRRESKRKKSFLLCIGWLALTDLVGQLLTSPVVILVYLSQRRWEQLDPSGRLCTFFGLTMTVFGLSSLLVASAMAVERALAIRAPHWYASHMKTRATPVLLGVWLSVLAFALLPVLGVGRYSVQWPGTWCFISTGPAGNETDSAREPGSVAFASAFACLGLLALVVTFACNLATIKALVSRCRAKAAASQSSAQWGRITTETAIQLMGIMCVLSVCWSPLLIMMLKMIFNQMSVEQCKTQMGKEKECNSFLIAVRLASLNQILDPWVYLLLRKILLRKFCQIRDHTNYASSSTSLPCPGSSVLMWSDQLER
Procedure: (1-2) Measurement of EP3 Agonist Activity (Intracellular Calcium Concentration Real Time Imaging (Ca^2+ Assay))
A rat EP3 receptor forced expression cell (rEP3-CHO cell) was incubated in an incubator (5% CO2) of 37° C. using Minimum Essential Medium Eagle (Sigma, M4526) to which 10% fetal bovine serum (FBS, JRH) and 1/100 of total volume of Penicillin Streptomycin Glutamine (GIBCO, 10378-016) had been added. The cells which reached confluent were exfoliated using trypsin and suspended in a medium (MEM medium containing 10% FBS) to a density of 1.0×10^5 cells per ml. […]
After the incubation, the culture fluid was removed from each well of the plate and a Fura2 loading buffer (10% FBS-containing MEM medium supplemented with Fura2-AM (5 μmol/L), HEPES (10 mmol/L), probenecid (2.5 mmol/L) and indometacin (20 μmol/L)) was added thereto, followed by incubating in an incubator (5% CO2) of 37° C. […] Measurement of the fluorescence intensity was continuously carried out for 3 minutes after addition of the compound.
Activity intensity of each compound was compared by calculating their EC50 values. The EC50 value was calculated by regarding mean of the changed amount of calcium concentration when PGE2 (100 nmol/L) was added instead of each compound as the maximum changed amount, and defining the value which gives half of the changed amount as the concentration of each compound. […]

rat EP2 receptor = target: T2, rat EP2 receptor (Rattus norvegicus, UniProt Q62928); assay: Measurement of EP2 agonist activity (intracellular cyclic AMP concentration, cAMP assay); format: cell-based; conditions: rEP2-CHO cell, maximum = PGE2 (1 μmol/l)
T2 construct: expressed in transfected cells; host or cells: CHO cells (rEP2-CHO)
T2 sequence (Q62928 whole entry): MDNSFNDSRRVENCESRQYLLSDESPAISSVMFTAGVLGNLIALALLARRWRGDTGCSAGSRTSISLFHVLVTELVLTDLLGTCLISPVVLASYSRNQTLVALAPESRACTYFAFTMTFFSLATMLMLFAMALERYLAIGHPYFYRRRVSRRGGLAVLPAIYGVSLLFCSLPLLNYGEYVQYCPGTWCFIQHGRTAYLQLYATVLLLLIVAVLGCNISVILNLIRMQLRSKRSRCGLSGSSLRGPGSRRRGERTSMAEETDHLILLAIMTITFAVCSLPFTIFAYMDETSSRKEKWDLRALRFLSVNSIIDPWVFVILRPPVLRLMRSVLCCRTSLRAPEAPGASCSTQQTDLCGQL
Procedure: (1-1) Measurement of EP2 Agonist Activity (Measurement of Intracellular Cyclic AMP (cAMP) Concentration (cAMP Assay))
A rat EP2 receptor forced expression cell (rEP2-CHO cell) was incubated in an incubator (5% CO2) of 37° C. using Minimum Essential Medium Eagle (Sigma, M4526) to which 10% fetal bovine serum (FBS, JRH) and 1/100 total volume of Penicillin Streptomycin Glutamine (GIBCO, 10378-016) had been added. The cells which reached confluent were exfoliated using trypsin and suspended in a medium (MEM medium containing 10% FBS) to a density of 2.0×10^5 cells per ml. The thus prepared suspension was seeded into a 24 well plate to be 1.0×10^5 cells per well portions and incubated for 48 hours. […]
The frozen sample was thawed and transferred to a micro centrifugation tube to be centrifuged (15,000 rpm, 4° C., 3 minutes). […] Using the upper layer as a sample, cAMP concentration was measured by a cAMP EIA system (cAMP Enzyme Immunoassay System, Amersham Biosciences).
Activity strengths of respective compounds were compared by calculating their EC50 values. The EC50 value was calculated by regarding changed amount of the cAMP concentration when PGE2 (1 μmol/l) was added instead of each compound as the maximum changed amount, and defining the value which gives half of the changed amount as the concentration of each compound.

cauda equina nerve = assay: Measurement of cauda equina nerve repair acceleration activity (rat cauda equina nerve compression gait disturbance model); format: in vivo; conditions: intravenous continuous administration 2 hours×twice/day, 2 weeks, in comparison with the physiological saline administration group
Procedure: (2) Measurement of Cauda Equina Nerve Repair Acceleration Activity
A rat cauda equina nerve compression gait disturbance model was prepared by the method of Takenobu et al. (J. Neurosci. Methods, 104 (2), 191-198, 2002). Namely, a rat was anesthetized with pentobarbital sodium and, after shaving its dorsal region, fixed at abdominal position. After disinfection of the dorsal region with chlorhexidine gluconate (5% hibitane liquid; Sumitomo Pharmaceuticals), the waist was median-incised to expose the spinal column. After excision of the fifth lumbar gemmule, a silicon rubber of 1×4×1.25 mm (height×length×width) was inserted into the fourth lumbar and sixth lumbar spinal canals from a small hole on the vertebral arch bored by a mini drill. For the purpose of avoiding infections, benzylpenicillin potassium (Crystalline Penicillin G Potassium Meiji; Meiji Seika Kaisha, Ltd.) was added dropwise to the incised part and intramuscularly injected into the thigh parts. The muscle and skin of the incised part were stitched with a surgical suture, and Iodine Tincture was applied to the stitched part. Animals of the sham operation group were prepared in accordance with the aforementioned method, but the insertion of silicon rubber was not carried out. […]

Row | EC50 (rat EP3 receptor) | EC50 (rat EP2 receptor) | Compound | decrease of the blood pressure (rat; left carotid artery) | increase rate of the cauda equina blood flow (rat; observed until 30 minutes after) | appearance rate of regeneration nerve fascicles (cauda equina nerve)
1 | 31 nM | 11 nM | C[C@@](O)(C/C=C/[C@H]1CCC(=O)[C@@H]1CCSc1nc(C(=O)O)cs1)CC1CCCCC1 [compound 17, 2-[(2-{(1R,2R)-2-[(1E,4S)-5-cyclohexyl-4-hydroxy-4-methyl-1-penten-1-yl]-5-oxocyclopentyl}ethyl)thio]-1,3-thiazole-4-carboxylic acid] | 5 mmHg | 33% | 
2 | 99 nM | 16 nM | O=C(O)c1csc(SCCN2C(=O)OC[C@@H]2/C=C/[C@@H](O)C2(CCCCF)CCC2)n1 [compound A, 2-{[2-((4S)-4-{(1E,3R)-3-[1-(4-fluorobutyl)cyclobutyl]-3-hydroxy-1-propenyl}-2-oxo-1,3-oxazolidin-3-yl)ethyl]sulfanyl}-1,3-thiazole-4-carboxylic acid] |  |  | significantly high appearance rate of regeneration nerve fascicles
